{"source": "patent US20250353891A1", "about": "(MEDIMMUNE LIMITED, priority 2022, published 2025)", "key": {"[1]": {"target": "human GLP-1 receptor (hGLP-1R) (Homo sapiens, UniProt P43220)", "sequence (P43220 24-463)": "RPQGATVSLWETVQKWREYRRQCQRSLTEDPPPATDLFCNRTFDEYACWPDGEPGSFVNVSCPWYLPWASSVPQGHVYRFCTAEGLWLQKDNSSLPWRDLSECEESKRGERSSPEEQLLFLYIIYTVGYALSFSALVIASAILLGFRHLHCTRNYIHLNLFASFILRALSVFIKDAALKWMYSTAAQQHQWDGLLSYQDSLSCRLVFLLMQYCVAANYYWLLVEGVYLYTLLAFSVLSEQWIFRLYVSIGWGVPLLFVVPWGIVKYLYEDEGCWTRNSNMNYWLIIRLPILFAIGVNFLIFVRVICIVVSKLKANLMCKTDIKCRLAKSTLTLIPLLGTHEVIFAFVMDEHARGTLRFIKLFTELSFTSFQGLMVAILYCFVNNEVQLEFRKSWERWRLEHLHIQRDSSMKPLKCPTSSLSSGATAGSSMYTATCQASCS", "assay": "cAMP production (HTRF) in CHO cells expressing hGLP-1R", "assay_type": "cell-based", "set-up": "expressed in transfected cells", "conditions": "for EC50: Table 7, peptides modified at position 20, cAMP in CHO hGLP-1R cells, geometric mean, read-out: hGLP-1R EC50; for % Relative Potency Ratio: Table 7, % GLP-1R activity relative to GLP-1 / % GlucR activity relative to glucagon", "summary_of_the_method": "(§1)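 Read-out: HTRF cAMP (anti-cAMP cryptate donor, cAMP-d2 acceptor in conjugate/lysis buffer), converted to % Delta F and fitted by 4-parameter logistic for EC50. Cell densities were 1×10^5 cells/mL (hGLP-1R) or 2×10^5 cells/mL (hGCGR). Stimulation lasted 30 min at room temperature.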"}, "[2]": {"target": "human glucagon receptor (hGCGR) (Homo sapiens, UniProt P47871)", "sequence (P47871 26-477)": "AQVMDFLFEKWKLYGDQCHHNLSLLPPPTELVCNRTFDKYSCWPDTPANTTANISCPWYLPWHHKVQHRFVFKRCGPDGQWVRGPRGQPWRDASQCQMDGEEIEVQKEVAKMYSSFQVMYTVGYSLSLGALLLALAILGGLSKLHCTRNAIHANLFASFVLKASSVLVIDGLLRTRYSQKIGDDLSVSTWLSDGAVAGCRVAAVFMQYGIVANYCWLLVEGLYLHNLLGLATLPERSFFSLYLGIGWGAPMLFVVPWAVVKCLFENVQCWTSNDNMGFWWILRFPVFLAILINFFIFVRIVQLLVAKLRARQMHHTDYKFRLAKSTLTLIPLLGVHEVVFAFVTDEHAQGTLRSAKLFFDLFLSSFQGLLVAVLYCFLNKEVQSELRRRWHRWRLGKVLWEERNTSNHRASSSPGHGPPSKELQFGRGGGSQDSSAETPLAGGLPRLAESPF", "assay": "cAMP production (HTRF) in CHO cells expressing hGCGR", "assay_type": "cell-based", "set-up": "expressed in transfected cells", "conditions": "Table 7, peptides modified at position 20; cAMP in CHO hGCGR cells; geometric mean; read-out: hGluc-R EC50", "summary_of_the_method": "as §1"}}, "note": "Starred links: 1 amine or outer side, 2 acyl side, 3 side chain; linkers in the order of their positions; H or OH if unused. Non-standard residues stand in square brackets, D forms with d. Residues, ends and D or L forms follow the SMILES beside them. Groups on a side chain read outwards from the residue. *: point of attachment. C20 diacid = O=C(O)CCCCCCCCCCCCCCCCCCC(=O)*; C18 diacid = O=C(O)CCCCCCCCCCCCCCCCC(=O)*; γGlu = O=C(O)[C@H](CCC(=O)[*:2])N[*:1]; αMeF = C[C@](N)(Cc1ccccc1)C(=O)O; AEEA = NCCOCCOCC(=O)O; Aib = CC(C)(N)C(=O)O", "data": [{"smiles": "CC[C@H](C)[C@H](NC(=O)C(C)(C)NC(=O)[C@H](CCC(=O)O)NC(=O)[C@@H](NC(=O)[C@](C)(Cc1ccccc1)NC(=O)[C@H](CC(=O)O)NC(=O)[C@H](CCCCNC(=O)COCCOCCNC(=O)COCCOCCNC(=O)CC[C@H](NC(=O)CC[C@H](NC(=O)CCCCCCCCCCCCCCCCCCC(=O)O)C(=O)O)C(=O)O)NC(=O)[C@H](C)NC(=O)[C@H](C)NC(=O)[C@H](CCCNC(=N)N)NC(=O)[C@H](CO)NC(=O)[C@H](CC(=O)O)NC(=O)[C@H](CC(C)C)NC(=O)[C@](C)(Cc1ccccc1)NC(=O)[C@H](CCCCN)NC(=O)[C@H](CO)NC(=O)[C@@H](NC(=O)[C@H](CC(=O)O)NC(=O)[C@H](CO)NC(=O)[C@@H](NC(=O)[C@](C)(Cc1ccccc1)NC(=O)[C@H](CO)NC(=O)CNC(=O)[C@H](Cc1c[nH]cn1)NC(=O)C(C)(C)NC(=O)[C@@H](N)Cc1c[nH]cn1)[C@@H](C)O)C(C)C)C(C)C)C(=O)N[C@@H](C)C(=O)N[C@@H](CC(N)=O)C(=O)N[C@H](C(N)=O)[C@@H](C)O", "note": "[Peptide 233] (H-H[Aib]HGS[αMeF]TSDVSK[αMeF]LDSRAAK([AEEA-AEEA-γGlu-γGlu-C20 diacid])D[αMeF]VE[Aib]IANT-NH2; N-terminus assumed)", "values": [{"measurement": "EC50", "setting": "[1]", "value": 0.44, "unit": "nM"}, {"measurement": "% Relative Potency Ratio", "setting": "[1]", "value": 1.8}, {"measurement": "EC50", "setting": "[2]", "value": 0.407, "unit": "nM"}]}, {"smiles": "CC[C@H](C)[C@H](NC(=O)C(C)(C)NC(=O)[C@H](CCC(N)=O)NC(=O)[C@@H](NC(=O)[C@H](Cc1ccccc1)NC(=O)[C@H](CC(=O)O)NC(=O)[C@H](CCCCNC(=O)COCCOCCNC(=O)COCCOCCNC(=O)CC[C@H](NC(=O)CC[C@H](NC(=O)CCCCCCCCCCCCCCCCCCC(=O)O)C(=O)O)C(=O)O)NC(=O)[C@H](C)NC(=O)[C@H](C)NC(=O)[C@H](CCCNC(=N)N)NC(=O)[C@H](CO)NC(=O)[C@H](CC(=O)O)NC(=O)[C@H](CC(C)C)NC(=O)[C@](C)(Cc1ccccc1)NC(=O)[C@H](CCCCN)NC(=O)[C@H](CO)NC(=O)[C@@H](NC(=O)[C@H](CC(=O)O)NC(=O)[C@H](CO)NC(=O)[C@@H](NC(=O)[C@](C)(Cc1ccccc1)NC(=O)[C@H](CO)NC(=O)CNC(=O)[C@H](Cc1c[nH]cn1)NC(=O)C(C)(C)NC(=O)[C@@H](N)Cc1c[nH]cn1)[C@@H](C)O)C(C)C)C(C)C)C(=O)N[C@@H](C)C(=O)N[C@@H](CC(N)=O)C(=O)N[C@H](C(=O)NCC(N)=O)[C@@H](C)O", "note": "[Peptide 234] (H-H[Aib]HGS[αMeF]TSDVSK[αMeF]LDSRAAK([AEEA-AEEA-γGlu-γGlu-C20 diacid])DFVQ[Aib]IANTG-NH2)", "values": [{"measurement": "EC50", "setting": "[1]", "value": 0.068, "unit": "nM"}, {"measurement": "% Relative Potency Ratio", "setting": "[1]", "value": 37.4}, {"measurement": "EC50", "setting": "[2]", "value": 1.29, "unit": "nM"}]}, {"smiles": "CC[C@H](C)[C@H](NC(=O)C(C)(C)NC(=O)[C@H](CCC(N)=O)NC(=O)[C@@H](NC(=O)[C@H](Cc1ccccc1)NC(=O)[C@H](CC(=O)O)NC(=O)[C@H](CCCCNC(=O)COCCOCCNC(=O)COCCOCCNC(=O)CC[C@H](NC(=O)CC[C@H](NC(=O)CCCCCCCCCCCCCCCCC(=O)O)C(=O)O)C(=O)O)NC(=O)[C@H](C)NC(=O)[C@H](C)NC(=O)[C@H](CCCNC(=N)N)NC(=O)[C@H](CO)NC(=O)[C@H](CC(=O)O)NC(=O)[C@H](CC(C)C)NC(=O)[C@](C)(Cc1ccccc1)NC(=O)[C@H](CCCCN)NC(=O)[C@H](CO)NC(=O)[C@@H](NC(=O)[C@H](CC(=O)O)NC(=O)[C@H](CO)NC(=O)[C@@H](NC(=O)[C@](C)(Cc1ccccc1)NC(=O)[C@H](CO)NC(=O)CNC(=O)[C@H](Cc1c[nH]cn1)NC(=O)C(C)(C)NC(=O)[C@@H](N)Cc1c[nH]cn1)[C@@H](C)O)C(C)C)C(C)C)C(=O)N[C@@H](C)C(=O)N[C@@H](CC(N)=O)C(=O)N[C@H](C(=O)NCC(N)=O)[C@@H](C)O", "note": "[Peptide 236] (H-H[Aib]HGS[αMeF]TSDVSK[αMeF]LDSRAAK([AEEA-AEEA-γGlu-γGlu-C18 diacid])DFVQ[Aib]IANTG-NH2)", "values": [{"measurement": "EC50", "setting": "[1]", "value": 0.0221, "unit": "nM"}, {"measurement": "% Relative Potency Ratio", "setting": "[1]", "value": 19.2}, {"measurement": "EC50", "setting": "[2]", "value": 0.215, "unit": "nM"}]}, {"smiles": "CC[C@H](C)[C@H](NC(=O)C(C)(C)NC(=O)[C@H](CCC(N)=O)NC(=O)[C@@H](NC(=O)[C@H](Cc1ccccc1)NC(=O)[C@H](CC(=O)O)NC(=O)[C@H](CCCCNC(=O)COCCOCCNC(=O)COCCOCCNC(=O)CC[C@H](NC(=O)CC[C@H](NC(=O)CCCCCCCCCCCCCCCCC(=O)O)C(=O)O)C(=O)O)NC(=O)[C@H](C)NC(=O)[C@H](C)NC(=O)[C@H](CCCNC(=N)N)NC(=O)[C@H](CO)NC(=O)[C@H](CC(=O)O)NC(=O)[C@H](CC(C)C)NC(=O)[C@](C)(Cc1ccccc1)NC(=O)[C@H](CCCCN)NC(=O)[C@H](CO)NC(=O)[C@@H](NC(=O)[C@H](CC(=O)O)NC(=O)[C@H](CO)NC(=O)[C@@H](NC(=O)[C@](C)(Cc1ccccc1)NC(=O)[C@H](CO)NC(=O)CNC(=O)[C@H](Cc1c[nH]cn1)NC(=O)C(C)(C)NC(=O)[C@@H](N)Cc1c[nH]cn1)[C@@H](C)O)C(C)C)C(C)C)C(=O)N[C@@H](C)C(=O)N[C@@H](CC(N)=O)C(=O)N[C@H](C(=O)NCC(=O)NCC(N)=O)[C@@H](C)O", "note": "[Peptide 237] (H-H[Aib]HGS[αMeF]TSDVSK[αMeF]LDSRAAK([AEEA-AEEA-γGlu-γGlu-C18 diacid])DFVQ[Aib]IANTGG-NH2; N-terminus assumed)", "values": [{"measurement": "EC50", "setting": "[1]", "value": 0.0267, "unit": "nM"}, {"measurement": "% Relative Potency Ratio", "setting": "[1]", "value": 22.1}, {"measurement": "EC50", "setting": "[2]", "value": 0.299, "unit": "nM"}]}, {"smiles": "CC[C@H](C)[C@H](NC(=O)[C@H](Cc1c[nH]c2ccccc12)NC(=O)[C@H](CCC(N)=O)NC(=O)[C@@H](NC(=O)[C@](C)(Cc1ccccc1)NC(=O)[C@H](CC(=O)O)NC(=O)[C@H](CCCCNC(=O)COCCOCCNC(=O)COCCOCCNC(=O)CC[C@H](NC(=O)CC[C@H](NC(=O)CCCCCCCCCCCCCCCCCCC(=O)O)C(=O)O)C(=O)O)NC(=O)[C@H](C)NC(=O)[C@H](C)NC(=O)[C@H](CCCNC(=N)N)NC(=O)[C@H](CO)NC(=O)[C@H](CC(=O)O)NC(=O)[C@H](CC(C)C)NC(=O)[C@](C)(Cc1ccccc1)NC(=O)[C@H](CCCCN)NC(=O)[C@H](CO)NC(=O)[C@@H](NC(=O)[C@H](CC(=O)O)NC(=O)[C@H](CO)NC(=O)[C@@H](NC(=O)[C@](C)(Cc1ccccc1)NC(=O)[C@H](CO)NC(=O)CNC(=O)[C@H](Cc1c[nH]cn1)NC(=O)C(C)(C)NC(=O)[C@@H](N)Cc1c[nH]cn1)[C@@H](C)O)C(C)C)C(C)C)C(=O)N[C@@H](C)C(=O)N[C@@H](CC(N)=O)C(=O)N[C@H](C(=O)NCC(N)=O)[C@@H](C)O", "note": "[Peptide 238] (H-H[Aib]HGS[αMeF]TSDVSK[αMeF]LDSRAAK([AEEA-AEEA-γGlu-γGlu-C20 diacid])D[αMeF]VQWIANTG-NH2)", "values": [{"measurement": "EC50", "setting": "[1]", "value": 0.155, "unit": "nM"}, {"measurement": "% Relative Potency Ratio", "setting": "[1]", "value": 12.7}, {"measurement": "EC50", "setting": "[2]", "value": 0.99, "unit": "nM"}]}]}
